Test results as given in US10766899B2, “Methods for preparing substituted imidazo[4,5-b]pyrazines” (Cytokinetics, Inc., priority 2006, dated 2020).

Tested on: SKM MF
Assay: SKM MF AC1.4: ATPase of skeletal sarcomeric proteins (actin, tropomyosin, troponin complex, myosin), PK/LDH coupled enzyme system
Format: biochemical
Settings: screen at pCa=6.5, † mean value, ‡ median value
Description: For example, test compounds can be assayed in a highly parallel fashion by using multiwell plates by placing the compounds either individually in wells or testing them in mixtures. Assay components including the target protein complex, coupling enzymes and substrates, and ATP can then be added to the wells and the absorbance or fluorescence of each well of the plate can be measured with a plate reader.
In some embodiments, the method uses a 384 well plate format and a 25 μL reaction volume. A pyruvate kinase/lactate dehydrogenase coupled enzyme system (Huang T G and Hackney D D. (1994) J Biol Chem 269(23):16493-501) can be used to measure the rate of ATP hydrolysis in each well. As will be appreciated by those in the art, the assay components are added in buffers and reagents. The incubation periods can be optimized to give adequate detection signals over the background. The assay can be done in real time giving the kinetics of ATP hydrolysis which increases the signal to noise ratio of the assay.
Actin was purified by first preparing an ether powder of cardiac muscle (Zot H G and Potter J D. (1981) Preparative Biochemistry 11:381-395) as described below. Subsequently, actin was cycled between the filamentous and soluble state through rounds of centrifugation and dialysis (Spudich J A and Watt S. (1971) J. Biol. Chem. 246:4866-4871). It was stored in the filamentous state at 4° C.
Tropomyosin was extracted from the ether powder and separated from the other proteins based on pH dependent precipitations followed by successive ammonium sulfate cuts at 53% and 65% (Smillie L B. (1981) Methods Enzymol 85 Pt B:234-41). The troponins were isolated as an intact complex of TnC, TnT, and TnI. Ether powder is extracted in a high salt buffer. Successive ammonium sulfate cuts of 30% and 45% were done; the precipitate was solubilized by dialysis into a low salt buffer and then further purified on a DEAE Toyopearl column with a 25-350 mM KCl gradient.
Just prior to screening, the actin, tropomyosin, and troponin complex are mixed together in the desired ratio (e.g., 7:1:1) to achieve maximal calcium regulation of the actin filament. The screen is conducted at a pCa=6.5. This calcium concentration is in the physiological range during muscle contraction.
To measure the generation of ADP during the reaction, a pyruvate kinase/lactate dehydrogenase/NADH coupled enzyme system (PK/LDH) is added to the actin. The myosin is kept separately. The plates are read in real time so that kinetic curves are obtained. These compounds are in DMSO and were already spotted onto the bottoms of 384 well plates at 10 to 40 μg/ml final concentration.
• 1. Obtain ˜1000 g skeletal muscle, such as rabbit skeletal muscle. • 2. Grind twice; extract with 2 L solution A for 15 min while stirring; add 4 L cold H2O, filter through gauze; dilute with cold H2O to ionic strength of 0.04, (about 10-fold); let settle for 3 h; collect precipitate at 7,000 rpm in GSA rotor for 15 min. • 3. Disperse pellet in 220 ml solution B; dialyze overnight against 6 L solution C; slowly add ˜400 ml equal volume cold distilled H2O; stir for 30 min; centrifuge at 10,000 rpm for 10 min in GSA rotor. • 4. Centrifuge supernatant at 19,000 rpm for 1 h. • 5. Dilute supernatant to ionic strength of 0.04 (˜8-fold); let myosin settle overnight; collect about 5-6 L fluffy myosin precipitate by centrifuging at 10,000 rpm for 10 min in GSA rotor. • 6. Resuspend pellet in minimal volume of solution G; dialyze overnight against 2 L solution D; centrifuge at 19,000 rpm for 2 h, in cellulose nitrate tubes; puncture tubes and separate myosin from fat and insoluble pellet. • 7. Dilute supernatant to 5-10 mg/ml and dialyze against solution E extensively, load onto DEAE-sephadex column. • 8. […]

Row | SKM MF AC1.4 | SKM MF AC1.4 (listed as 1-(ethylpropyl)-6-(trifluoromethyl)imidazo[4,5-b]pyrazin-2-ol) | SKM MF AC1.4 (listed as 1-(pentan-3-yl)-6-(trifluoromethyl)-1H-imidazo[4,5-b]pyrazin-2(3H)-one) | Compound
1 | 15 µM | – | – | 1-(ethylpropyl)-6-(1-methylpyrazol-4-yl)imidazo[4,5-b]pyrazin-2-ol
2 | 0.6 µM | – | – | 1-(ethylpropyl)-6-(1-methylvinyl)imidazo[4,5-b]pyrazin-2-ol
3 | 29.6 µM | – | – | 1-(ethylpropyl)-6-(methylethyl)imidazo[4,5-b]pyrazin-2-ol
4 | 46.64 µM | – | – | 6-(1H-1,2,3-triazol-4-yl)-1-(ethylpropyl)imidazo[4,5-b]pyrazin-2-ol
5 | 0.7 µM | – | – | 6-bromo-1-(propylbutyl)imidazo[4,5-b]pyrazin-2-ol
6 | 8.58 µM | – | – | 6-ethyl-1-(ethylpropyl)imidazo[4,5-b]pyrazin-2-ol
7 | 23.5 µM | – | – | Oc1nc2ncc(Br)nc2n1Cc1ccccc1 [1-benzyl-6-bromo-1H-imidazo[4,5-b]pyrazin-2-ol]
8 | 13.9 µM | – | – | CSc1cnc2nc(O)n(C3CCCCC3)c2n1 [1-cyclohexyl-6-(methylthio)-1H-imidazo[4,5-b]pyrazin-2-ol]
9 | 6.7 µM | – | – | CSc1cnc2nc(O)n(C(C)C)c2n1 [1-isopropyl-6-(methylthio)-1H-imidazo[4,5-b]pyrazin-2-ol]
10 | >49 µM | – | – | CCC(C(=O)N1CCOCC1)n1c(O)nc2ncc(Br)nc21 (stereo not drawn) [2-(6-bromo-2-hydroxy-1H-imidazo[4,5-b]pyrazin-1-yl)-1-morpholinobutan-1-one]
11 | >49 µM | – | – | CCC(C(=O)O)n1c(O)nc2ncc(Br)nc21 (stereo not drawn) [2-(6-bromo-2-hydroxy-1H-imidazo[4,5-b]pyrazin-1-yl)butanoic acid]
12 | 36.4 µM | – | – | CCC(CC)n1c(O)nc2ncc(C#N)nc21 [2-hydroxy-1-(pentan-3-yl)-1H-imidazo[4,5-b]pyrazine-6-carbonitrile]
13 | 11.5 µM | – | – | CCC(CC)n1c(O)nc2nc(Br)cnc21 [5-bromo-1-(pentan-3-yl)-1H-imidazo[4,5-b]pyrazin-2-ol]

Second part, the compound before the results:

Row | Compound | SKM MF AC1.4 | SKM MF AC1.4 (listed as 1-(ethylpropyl)-6-(trifluoromethyl)imidazo[4,5-b]pyrazin-2-ol) | SKM MF AC1.4 (listed as 1-(pentan-3-yl)-6-(trifluoromethyl)-1H-imidazo[4,5-b]pyrazin-2(3H)-one)
14 | 1-(ethylpropyl)-6-{2-[1-(ethylpropyl)-2-hydroxyimidazo[4,5-e]pyrazin-6-yl]ethynyl}imidazo[4,5-b]pyrazin-2-ol | 19.32 µM | – | –
15 | CCC(CN)n1c(O)nc2ncc(Br)nc21 (stereo not drawn) [1-(1-aminobutan-2-yl)-6-bromo-1H-imidazo[4,5-b]pyrazin-2-ol] | 1.1 µM | – | –
16 | CCC(CN1CCOCC1)n1c(O)nc2nccnc21 (stereo not drawn) [1-(1-morpholinobutan-2-yl)-1H-imidazo[4,5-b]pyrazin-2-ol] | >49 µM | – | –
17 | C=Cc1cnc2nc(O)n(C(CC)CC)c2n1 [1-(ethylpropyl)-6-vinylimidazo[4,5-b]pyrazin-2-ol] | 2.3 µM | – | –
18 | CCC(CC)n1c(O)nc2nccnc21 [1-(pentan-3-yl)-1H-imidazo[4,5-b]pyrazin-2-ol] | 16.0^† μM | – | –
19 | CCC(CC)n1c(O)nc2ncc(O)nc21 [1-(pentan-3-yl)-1H-imidazo[4,5-b]pyrazine-2,6-diol] | >49 µM | – | –
20 | CCC(CC)n1c(O)nc2nc3ccccc3nc21 [1-(pentan-3-yl)-1H-imidazo[4,5-b]quinoxalin-2-ol] | 19.8 µM | – | –
21 | CC#Cc1cnc2nc(O)n(C(CC)CC)c2n1 [1-(pentan-3-yl)-6-(prop-1-ynyl)-1H-imidazo[4,5-b]pyrazin-2-ol] | >49 µM | – | –
22 | CCC(CC)n1c(O)nc2ncc(C(F)(F)F)nc21 [1-(pentan-3-yl)-6-(trifluoromethyl)-1H-imidazo[4,5-b]pyrazin-2-ol] | 10.4^‡ μM | 10.37 µM | 10.4^‡ μM
23 | C#Cc1cnc2nc(O)n([C@H](CC)CN3CCOCC3)c2n1 [1-[(1R)-1-(morpholin-4-ylmethyl)propyl]-6-ethynylimidazo[4,5-b]pyrazin-2-ol] | 0.13 µM | – | –
24 | CC(C)C[C@H](CN1CCOCC1)n1c(O)nc2ncc(Br)nc21 [1-[(1R)-3-methyl-1-(morpholin-4-ylmethyl)butyl]-6-bromoimidazo[4,5-b]pyrazin-2-ol] | 0.5 µM | – | –
25 | CSc1cnc2nc(O)n(Cc3ccccc3)c2n1 [1-benzyl-6-(methylthio)-1H-imidazo[4,5-b]pyrazin-2-ol] | 22.6 µM | – | –
